Our source for the melting point values is US9469633B2 (dated 2016).

By melting point is commonly meant the temperature of the solid-liquid transition. As to `O=C1C[C@](c2cc(Cl)cc(Cl)c2)(C(F)(F)F)C(=O)N1`, the melting point was in the range of 138 to 141 °C. With `O=C(/C=C(\c1cc(Cl)cc(Cl)c1)C(F)(F)F)c1ccco1` the figure was 72 to 76 °C.
